One may read the MIC50 as an inhibitory concentration at the 50% level, which refers to growth in some studies and to a panel of isolates in others. The low end stands for greater potency, the high end for weaker potency.

In ChEMBL document CHEMBL5113371, “Lipolytic enzymes inhibitors: A new way for antibacterial drugs discovery” (Eur J Med Chem, 2021) one finds MIC50 and Activity data, which are given here for 17 compounds.

Test [1] deals with Mycobacterium tuberculosis H37Rv. Description: Antibacterial activity against Mycobacterium tuberculosis H37Rv expressing GFP incubated for 7 days. The test is classed as functional, Mycobacterium tuberculosis variant bovis.
Test [2] shares this test system. Description: Antibacterial activity against Mycobacterium tuberculosis H37Rv expressing GFP infected in mouse Raw264.7 cells incubated for 5 days by SYTO 60 staining method. In kind it is functional, Mycobacterium tuberculosis variant bovis.
Test [3] relates to Mycobacterium tuberculosis variant bovis. Description: Antibacterial activity against VLDL-treated Mycobacterium bovis BCG assessed as level of intrabacterial lipid inclusions profile relative to control. In kind it is functional.
Setting [4] is: Mycobacterium tuberculosis variant bovis, time 5.0 day.

Converted amounts (≈) assume the structure as drawn.

Turning to `CCCCCCCCCCCC[C@@H]1CC[P@@](=O)(OC)OC(C)=C1C(=O)OC`, the MIC50 in test [1] (168 h, time 7 day) amounted to 40.4 µM (≈ 16.3 µg/mL); in test [2] (120 h, time 5 day) it was 4 µM (≈ 1.61 µg/mL).

For the compound `COc1nn(-c2cccc(Oc3ccccc3)c2)c(=O)o1`, in test [3], the Activity was 90%.

On to `NNC(=O)c1ccncc1` [ISONIAZID], for which the MIC50 in test [1] (168 h, time 7 day) turned out to be 1.2 µM (≈ 0.165 µg/mL); in test [2] (120 h, time 5 day) it was 1.2 µM (≈ 0.165 µg/mL).

As for `CC(C)COc1nn(-c2ccccc2)c(=O)o1`, the MIC50 in test [1] (168 h, time 7 day) is greater than 50 µM; in test [2] (120 h, time 5 day), 17.1 µM (≈ 4.01 µg/mL).

Take `O=c1oc(OCCOCc2ccccc2)nn1-c1ccccc1`: the MIC50 was 30.8 µM (≈ 9.62 µg/mL) in test [1] (168 h, time 7 day) and “NE” in test [2] (setting [4]).

In the case of `CCCCCCCCCC[C@H]1CC[P@@](=O)(OC)OC(C)=C1C(=O)OC`, the MIC50 in test [1] (168 h, time 7 day) stood at 16.6 µM (≈ 6.22 µg/mL); in test [2] (120 h, time 5 day), 3.1 µM (≈ 1.16 µg/mL).

In the case of `CCCCCCOc1nn(-c2ccccc2)c(=O)o1`, the MIC50 in test [1] (168 h, time 7 day) was 44.6 µM (≈ 11.7 µg/mL); in test [2] (setting [4]) it was “NE”.

With `O=c1oc(OCCOCc2ccccc2)nn1-c1ccc(Oc2ccccc2)cc1`, the MIC50 was greater than 50 µM in test [1] (168 h, time 7 day) and 3.5 µM (≈ 1.42 µg/mL) in test [2] (120 h, time 5 day).

For the compound `CO[C@H]1/C=C/O[C@@]2(C)Oc3c(C)c(O)c4c(O)c(c(/C=N/N5CCN(C)CC5)c(O)c4c3C2=O)NC(=O)/C(C)=C\C=C\[C@H](C)[C@H](O)[C@@H](C)[C@@H](O)[C@@H](C)[C@H](OC(C)=O)[C@@H]1C` [RIFAMPIN], the MIC50 in test [1] (168 h, time 7 day) is 0.01 µM (≈ 0.00823 µg/mL); in test [2] (120 h, time 5 day) it was 2.9 µM (≈ 2.39 µg/mL).

In the case of `CCCCCCCCCCCCCCCCO[P@]1(=O)OC[C@@H]2COC(=O)C2=C(C)O1`, the MIC50 result in test [2] (setting [4]) is listed as “NE”.

Regarding `CCCCC[C@H]1CC[P@@](=O)(OC)OC(C)=C1C(=O)OC`, the MIC50 entry in test [1] (Mycobacterium tuberculosis variant bovis, time 7.0 day) was “NE”.

For the compound `CCCCCCOc1nn(-c2ccc(Oc3ccccc3)cc2)c(=O)o1`, the MIC50 is greater than 50 µM in test [1] (168 h, time 7 day) and 9.5 µM (≈ 3.37 µg/mL) in test [2] (120 h, time 5 day).

With `CC(C)COc1nn(-c2ccc(Oc3ccccc3)cc2)c(=O)o1`, the MIC50 was found to be 32 µM (≈ 10.4 µg/mL) in test [1] (168 h, time 7 day) and 8.5 µM (≈ 2.77 µg/mL) in test [2] (120 h, time 5 day).

In the case of `CCCCCCCCCC[C@@H]1CC[P@@](=O)(OC)OC(C)=C1C(=O)OC`, the MIC50 in test [2] (120 h, time 5 day) came out at 4.5 µM (≈ 1.69 µg/mL).

`CCCCCCCCCCCCCCCCOP1(=O)OCCC(C(=O)OC)=C(C)O1` (centres undefined): the MIC50 is 0.5 µM (≈ 0.223 µg/mL) in test [1] (168 h, time 7 day) and “NE” in test [2] (setting [4]).

On to `CCCCCCCCCCCCCCCCO[P@]1(=O)OC[C@H]2COC(=O)C2=C(C)O1`, for which the MIC50 was 1.7 µM (≈ 0.756 µg/mL) in test [1] (168 h, time 7 day) and “NE” in test [2] (setting [4]).

In test [1] (168 h, time 7 day), `CCCCCCCCCCCC[C@H]1CC[P@@](=O)(OC)OC(C)=C1C(=O)OC` had an MIC50 greater than 100 µM.
